Measured values from patent US7034162B2, “Amorphous form of 3-[2-(dimethylamino) ethyl]-N-methyl-1H-indole-5-methane sulfonamide succinate (sumatriptan succinate)” (Dr. Reddy's Laboratories Limited, priority 2000, dated 2006).

Test: thermal stability of the solid (stated property, no method described)
Format: physicochemical
Conditions: solid amorphous form; test conditions not given

CNS(=O)(=O)Cc1ccc2[nH]cc(CCN(C)C)c2c1.O=C(O)CCC(=O)O [amorphous form of Sumatriptan succinate, 3-[2-(dimethylamino)ethyl]-N-methyl-1H-indole-5-methane sulfonamide succinate]
thermal stability of the solid: thermally stable
